Source: PMC8474119, “Discovery and SAR Evolution of Pyrazole Azabicyclo[3.2.1]octane Sulfonamides as a Novel Class of Non-Covalent N-Acylethanolamine-Hydrolyzing Acid Amidase (NAAA) Inhibitors for Oral Administration” (Journal of Medicinal Chemistry, 2021)

Key:
[1] = target: T1, human acid ceramidase (AC) (Homo sapiens, UniProt Q13510); assay: Fluorogenic human-AC assay; format: biochemical
T1 construct: made in house; host or cells: HEK-293 cells stably overexpressing human AC; enzyme-enriched lysate
T1 sequence (Q13510 143-395 limits assumed): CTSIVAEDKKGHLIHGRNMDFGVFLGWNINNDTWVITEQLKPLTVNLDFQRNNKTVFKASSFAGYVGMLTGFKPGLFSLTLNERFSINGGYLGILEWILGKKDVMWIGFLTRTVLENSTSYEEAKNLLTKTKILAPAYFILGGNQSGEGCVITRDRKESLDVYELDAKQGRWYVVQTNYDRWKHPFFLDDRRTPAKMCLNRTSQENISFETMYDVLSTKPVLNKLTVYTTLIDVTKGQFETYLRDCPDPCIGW
T1 sequence (Q13510 22-142 limits assumed): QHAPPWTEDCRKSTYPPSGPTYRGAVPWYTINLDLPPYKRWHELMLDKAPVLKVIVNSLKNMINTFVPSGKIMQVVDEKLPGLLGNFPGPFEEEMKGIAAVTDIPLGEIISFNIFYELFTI
Protocol: (§1) Human recombinant proteins were obtained from HEK-293 stable overexpressing human NAAA, AC, and FAAH-1 cell lines, respectively. Cells were grown in Dulbecco’s modified Eagle medium (DMEM) containing 10% FBS, 1% glutamine, 1 mM sodium pyruvate, and 500 μg/mL geneticin (G418). To obtain a high-density cell proliferation, h-NAAA-HEK-293 cells were grown in BelloCell-500 bottle, a compact bioreactor. On the contrary, h-AC and h-FAAH-1-HEK-293 cells were grown in 150 mm dishes and scraped off with cold PBS 1× pH 7.4 at 80% confluence. Cell pellets were collected and stored at −80 °C until protein preparation.
HEK-293 cells stably transfected with the human NAAA or human AC coding sequences were used as the enzyme source. […] The suspension was finally centrifuged at 105,000g for 1 h at 4 °C, supernatants were collected, protein concentration was measured, and samples were aliquoted and stored at −80 °C until use.
The assay was performed in Optiplate 96-wells black plates (PerkinElmer, Massachusetts, USA) in a total reaction volume of 250 μL. h-AC protein (2 μg) was preincubated for 10 min with various concentrations of test compounds or vehicle control (DMSO 5%) in 25 mM sodium acetate buffer (pH 4.5). […] Fluorescence was measured with the EnVision 2014 Multilabel Reader (PerkinElmer, Massachusetts, USA) at an excitation/emission wavelength of 355/460 nm. […]

[2] = target: T2, human FAAH (Homo sapiens, UniProt O00519); assay: Fluorogenic human-FAAH-1 assay; format: biochemical
T2 construct: made in house; host or cells: HEK-293 cells stably overexpressing human FAAH-1; membrane-enriched lysate
T2 sequence (O00519 1-579): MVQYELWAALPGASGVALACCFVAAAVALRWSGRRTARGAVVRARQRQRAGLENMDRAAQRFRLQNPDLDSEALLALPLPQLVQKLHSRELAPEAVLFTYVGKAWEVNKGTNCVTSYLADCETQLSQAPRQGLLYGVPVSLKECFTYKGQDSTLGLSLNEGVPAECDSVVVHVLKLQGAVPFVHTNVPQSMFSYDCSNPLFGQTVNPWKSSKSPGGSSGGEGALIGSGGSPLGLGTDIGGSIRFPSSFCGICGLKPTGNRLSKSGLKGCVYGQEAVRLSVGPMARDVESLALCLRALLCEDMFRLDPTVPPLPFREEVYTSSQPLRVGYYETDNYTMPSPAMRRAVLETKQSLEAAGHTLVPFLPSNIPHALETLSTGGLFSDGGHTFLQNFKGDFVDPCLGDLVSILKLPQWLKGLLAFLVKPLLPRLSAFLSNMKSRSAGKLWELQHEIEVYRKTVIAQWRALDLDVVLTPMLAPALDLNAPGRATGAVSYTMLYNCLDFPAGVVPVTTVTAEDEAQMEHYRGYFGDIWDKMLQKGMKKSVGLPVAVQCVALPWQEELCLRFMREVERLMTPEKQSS
Protocol: as §1
Cell pellets, obtained by centrifugation at 300g for 7 min at 4 °C, were resuspended in 20 mM Tris-HCl pH 7.4, 0.32 M sucrose, disrupted by sonication (10 pulses, 5 times), and centrifuged (1000g, 10 min, 4 °C). […] Membrane pellets were resuspended in PBS to obtain h-FAAH-1 preparation; the protein concentration was measured by the Bradford Protein Assay (BioRad) and samples were aliquoted and stored at −80 °C until use.
The fluorescence assay to measure FAAH activity was performed in 96-well black plates (Black OptiPlate-96 F; PerkinElmer, Massachusetts, USA): 2.5 μg of human FAAH-1 membrane preparation was preincubated for 50 min at 37 °C, in 190 μL of assay buffer (50 mM Tris-HCl pH 7.4, 0.05% Fatty acid-free BSA) with 5 μL of inhibitor or 5 μL DMSO to measure FAAH total activity. […]

For `CCOCc1cnc(O[C@H]2C[C@H]3CC[C@@H](C2)N3S(=O)(=O)c2c(C)n[nH]c2C)cn1` [Compound 50, (1R,3r,5S)-8-((3,5-Dimethyl-1H-pyrazol-4-yl)sulfonyl)-3-((5-(ethoxymethyl)pyrazin-2-yl)oxy)-8-azabicyclo[3.2.1]octane], the inhibition at 30 µM [1] was 34% and the inhibition at 30 µM [2] was 25%.
